Results as given in patent US7598242B2 (priority 2001, dated 2009).

Biological target: T1, purified catalytic domain of recombinant human TACE (rhTACEc) (Homo sapiens, UniProt P78536, N452Q/S266A)
T1 construct: Residue 215 to 477 with two mutation (S266A and N452Q) and a 6×His tail; 6xHis (C); made in house; host or cells: baculovirus/Hi5 insect cells
Assay: biochemical

T1 sequence (P78536 215-477 S266A/N452Q): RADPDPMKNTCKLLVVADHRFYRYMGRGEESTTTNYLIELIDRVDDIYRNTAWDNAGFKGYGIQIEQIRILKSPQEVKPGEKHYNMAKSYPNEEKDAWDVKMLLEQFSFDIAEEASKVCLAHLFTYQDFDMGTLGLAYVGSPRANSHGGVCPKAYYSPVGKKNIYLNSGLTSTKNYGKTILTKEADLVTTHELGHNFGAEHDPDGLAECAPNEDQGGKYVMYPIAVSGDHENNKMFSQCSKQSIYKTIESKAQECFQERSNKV

Ki, < 20 nM:
Cc1cc(COc2ccc(C[C@]3(C(=O)N(C)C)C[C@@H]3C(=O)NO)cc2)c2ccccc2n1 [BL], CN(C)C(=O)[C@@]1(Cc2ccc(OCc3cc(C(F)(F)F)nc4ccccc34)cc2)C[C@@H]1C(=O)NO [BO], CN(C)CCNC(=O)[C@@]1(Cc2ccc(OCc3cc(C(F)(F)F)nc4ccccc34)cc2)C[C@@H]1C(=O)NO [BP], O=C1CN(C(=O)[C@@]2(Cc3ccc(OCc4cc(-c5ccccc5)nc5ccccc45)cc3)C[C@@H]2C(=O)NO)CCN1 [BQ], CN(C)c1cc(COc2ccc(C[C@]3(C(N)=O)C[C@@H]3C(=O)NO)cc2F)c2ccccc2n1 [CN], CCc1cc(COc2ccc(C[C@]3(C(N)=O)C[C@@H]3C(=O)NO)cc2F)c2ccccc2n1 [CO], CCCc1cc(COc2ccc(C[C@]3(C(N)=O)C[C@@H]3C(=O)NO)cc2F)c2ccccc2n1 [CR], NC(=O)[C@@]1(Cc2ccc(OCc3cc(-c4ccccn4)nc4ccccc34)c(F)c2)C[C@@H]1C(=O)NO [CS], NC(=O)[C@@]1(Cc2ccc(OCc3cc(C4CC4)nc4ccccc34)c(F)c2)C[C@@H]1C(=O)NO [CU], Cc1cc(COc2ccc(C[C@]3(C(N)=O)C[C@@H]3C(=O)NO)cc2F)c2ccccc2n1 [CV], NC(=O)[C@@]1(Cc2ccc(OCc3cc(-c4ccccc4Cl)nc4ccccc34)c(F)c2)C[C@@H]1C(=O)NO [CW], NC(=O)[C@@]1(Cc2ccc(OCc3cc(-c4ccc(Cl)cc4)nc4ccccc34)c(F)c2)C[C@@H]1C(=O)NO [CY], CN(C)C(=O)[C@@]1(Cc2ccc(OCc3cc(-c4ccncc4)nc4ccccc34)c(F)c2)C[C@@H]1C(=O)NO [CZ], NC(=O)[C@@]1(Cc2ccc(OCc3cc(-c4cccnc4)nc4ccccc34)cc2)C[C@@H]1C(=O)NO [DA], CCc1cc(COc2ccc(C[C@]3(C(=O)OC)C[C@@H]3C(=O)NO)cc2F)c2ccccc2n1 [DB], Cc1cc(COc2ccc(C[C@]3(C#N)C[C@@H]3C(=O)NO)cc2)c2ccccc2n1 [FG], Cc1cc(COc2ccc(C[C@]3(C(N)=O)C[C@@H]3C(=O)NO)cc2Cl)c2ccccc2n1 [FN], Cc1cc(COc2ccc(C[C@]3(C(N)=O)C[C@@H]3C(=O)NO)cc2Br)c2ccccc2n1 [FQ], CC1CCCN1c1cc(COc2ccc(C[C@]3(C(N)=O)C[C@@H]3C(=O)NO)cc2F)c2ccccc2n1 (some centres unmarked) [FV], CN1CCN(c2cc(COc3ccc(C[C@]4(C(N)=O)C[C@@H]4C(=O)NO)cc3F)c3ccccc3n2)CC1 [FX], COC(=O)[C@@]1(Cc2ccc(OCc3cc(N4CCCC4)nc4ccccc34)c(F)c2)C[C@@H]1C(=O)NO [FY], COC(=O)[C@@]1(Cc2ccc(OCc3cc(N4CCOCC4)nc4ccccc34)c(F)c2)C[C@@H]1C(=O)NO [FZ], COC(=O)[C@@]1(Cc2ccc(OCc3cc(N4CCN(C)CC4)nc4ccccc34)c(F)c2)C[C@@H]1C(=O)NO [GA], CNc1cc(COc2ccc(C[C@]3(C(=O)OC)C[C@@H]3C(=O)NO)cc2F)c2ccccc2n1 [GB], CCOC(=O)[C@@]1(Cc2ccc(OCc3cc(-c4cccnc4)nc4ccc(C)cc34)c(F)c2)C[C@@H]1C(=O)NO [GV], CCc1cc(COc2ccc(C[C@]3(C(=O)N4CC[C@H](O)C4)C[C@@H]3C(=O)NO)cc2)c2ccccc2n1 [JC], CN(C)CCN(C)C(=O)[C@@]1(Cc2ccc(OCc3cc(-c4ccccc4)nc4ccccc34)cc2)C[C@@H]1C(=O)NO [JD], O=C(NO)[C@H]1C[C@]1(Cc1ccc(OCc2cc(-c3ccccc3)nc3ccccc23)cc1)C(=O)N1CC[C@H](NC(=O)C(F)(F)F)C1 [JE], CCc1cc(COc2ccc(C[C@]3(C(=O)N4CC[C@H](N(C)C)C4)C[C@@H]3C(=O)NO)cc2)c2ccccc2n1 [JF], Cc1cc(COc2ccc(C[C@]3(C(=O)N4CCC[C@H]4CO)C[C@@H]3C(=O)NO)cc2)c2ccccc2n1 [JG], Cc1cc(COc2ccc(C[C@]3(C(=O)N(C)C)C[C@@H]3C(=O)NO)cc2F)c2ccccc2n1 [JO], CCc1cc(COc2ccc(C[C@]3(C(=O)N4CC[C@H](O)C4)C[C@@H]3C(=O)NO)cc2F)c2ccccc2n1 [JR], CCc1cc(COc2ccc(C[C@]3(C(=O)N4CC[C@@H](N)C4)C[C@@H]3C(=O)NO)cc2F)c2ccccc2n1 [JS], CCc1cc(COc2ccc(C[C@]3(C(=O)N4CC[C@H](N(C)C)C4)C[C@@H]3C(=O)NO)cc2F)c2ccccc2n1 [JT], CCc1cc(COc2ccc(C[C@]3(C(=O)N4CC[C@@H](NC(=O)C(F)(F)F)C4)C[C@@H]3C(=O)NO)cc2F)c2ccccc2n1 [JU], CN(C)C1CCN(C(=O)[C@@]2(Cc3ccc(OCc4cc(-c5ccncc5)nc5ccccc45)c(F)c3)C[C@@H]2C(=O)NO)C1 (some centres unmarked) [JV], Cc1cc(COc2cccc([C@@]3(C(=O)NC4CCCCC4)C[C@H]3C(=O)NO)c2)c2ccccc2n1 [JY], Cc1cc(COc2cccc([C@@]3(C(=O)OC(C)C)C[C@H]3C(=O)NO)c2)c2ccccc2n1 [KM], N[C@@H]1CCN(C(=O)[C@@]2(Cc3ccc(OCc4cc(-c5ccccc5)nc5ccccc45)cc3)C[C@@H]2C(=O)NO)C1 [KZ], CCOC(=O)[C@@]1(Cc2ccc(OCc3ccnc(N4CCOCC4)c3)cc2)C[C@@H]1C(=O)NO [LH], COC(=O)[C@@]1(Cc2ccc(OCc3cc(-c4ccncc4)nc4ccccc34)c(F)c2)C[C@@H]1C(=O)NO [LI], NC(=O)[C@@]1(Cc2ccc(OCc3cc(N4CCCCC4)nc4ccccc34)c(F)c2)C[C@@H]1C(=O)NO [LM], Cc1cc(COc2ccc(C[C@]3(C(=O)NCc4ccccc4)C[C@@H]3C(=O)NO)cc2)c2ccccc2n1 [O], Cc1cc(COc2ccc(C[C@]3(C(=O)NCc4cccnc4)C[C@@H]3C(=O)NO)cc2)c2ccccc2n1 [P]
